Source: patent US10206889B2, “Emesis treatment” (Repurposed Therapeutics, Inc., priority 2009, dated 2019)

What was measured:
[1] = tested on: xylazine-induced emesis in cats; test: Xylazine-induced emesis in cats, with vomit scale and defensive behavior (anxiety) scoring; format: in vivo, cats (female domestic short-haired felines); details: for level of anxiety 15 minutes after treatment / protection against xylazine-induced emesis / cats vomited: FIG. 1, female cats; for protection against xylazine-induced emesis / cats vomited: fifteen minutes before 0.66 mg/kg xylazine SC, observed 30 minutes; for Defensive Behavior Scale / Mean Defensive Score / % Protection (vomiting) / Mean Latency (mean latency to retch/vomit): cats; for % Protection (vomiting) / Mean Latency (mean latency to retch/vomit): 20 minutes before xylazine 0.66 mg/kg; for anxiety-inducing effect in test subjects / effectiveness in preventing (chemically-induced) emesis: summary statement of the description, no dose given, test subjects
Method: (i) 0.9% sodium chloride vehicle (n=6);
[…], 0.66 mg/kg xylazine was administered subcutaneously, and the test subjects where then observed for 30 minutes.
Cats not susceptible to motion sickness were assigned to the xylazine testing group. Xylazine stimulates receptors on a pathway different from that used by motion sickness and thus served as a test of the generality of anti-emetic effects observed with motion testing.
Prior to the evaluation of anti-emetic compounds, the production of an emetic response by xylazine in felines was confirmed in the laboratory. Cats were injected subcutaneously with either a freshly prepared solution of 0.66 mg/kg of xylazine in 0.9% sodium chloride or 0.9% sodium chloride vehicle, both adjusted to an injection volume of 0.1 ml/kg.
One week following the confirmation of an emetic response by the cats, subject cats were given either vehicle or test compound/composition in 0.9% sodium chloride or vehicle (injection volume of 0.1 ml/kg) subcutaneously, 20 minutes before administration of xylazine. […] Animals were scored using the vomit scale developed by Sufi et al., 1979. Additional experiments were separated by at least a 1 week washout period.
A. Vomit Scale Scoring: • 1. Sal I (licking—parasympathetic): 1 pt • 2. Sal II (drool, thin/frothy—early sympathetic): 2 pts • 3. Sal III (stringy saliva, dangles—sympathetic): 4 pts • 4. Defection: 8 pts • 5. Urination: 8 pts • 6. Wretch/vomiting: 16 pts
B. Defensive Behavior Scale: • 1. No defensiveness: normal behavior; • 2. Slight defensiveness: retreating to the rear of the cage when approached and/or growling when being carried; • 3. […] Strong defensiveness: vigorous clawing and biting to prevent being handled. V. Statistical Methods
Dose response curves were analyzed by Cochran's Q-test to establish significant effects. Paired comparisons were made using McNemar's test. Tests for line parallelism, relative potency and ED50 were based on least squares regression in a program for pharmacological statistics. The data from the nonparametric rating scale was analyzed using Friedman's analysis of variance model (ANOVA).

[2] = molecular target: T1, 5-HT1A receptor (Human Ligand) (Homo sapiens, UniProt P08908); test: 5-HT1A cellular function, antagonist; format: cell-based
T1 sequence (P08908 1-422): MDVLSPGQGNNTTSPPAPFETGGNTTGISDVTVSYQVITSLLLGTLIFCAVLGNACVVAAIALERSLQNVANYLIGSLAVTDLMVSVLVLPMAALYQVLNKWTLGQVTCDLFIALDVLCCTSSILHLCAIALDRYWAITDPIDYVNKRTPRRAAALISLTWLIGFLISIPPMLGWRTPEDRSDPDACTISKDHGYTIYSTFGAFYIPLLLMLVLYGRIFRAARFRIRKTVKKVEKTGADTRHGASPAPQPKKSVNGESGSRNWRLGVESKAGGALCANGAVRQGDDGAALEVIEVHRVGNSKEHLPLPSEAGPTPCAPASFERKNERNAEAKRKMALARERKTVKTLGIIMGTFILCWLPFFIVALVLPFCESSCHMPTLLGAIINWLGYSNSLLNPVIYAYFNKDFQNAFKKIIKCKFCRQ

[3] = molecular target: T1, 5-HT1A receptor (Human Ligand); test: 5-HT1A cellular function, agonist; format: cell-based
Method: The percent of control agonist response was recorded for several log concentrations of compounds/compositions.

[4] = molecular target: T2, rat ligand of the 5-HT1A receptor (Rattus norvegicus, UniProt P19327); details: Cornfield 1991, Hadrava 1996, Dabrowska 2006; cited from earlier work
T2 sequence (P19327 1-422): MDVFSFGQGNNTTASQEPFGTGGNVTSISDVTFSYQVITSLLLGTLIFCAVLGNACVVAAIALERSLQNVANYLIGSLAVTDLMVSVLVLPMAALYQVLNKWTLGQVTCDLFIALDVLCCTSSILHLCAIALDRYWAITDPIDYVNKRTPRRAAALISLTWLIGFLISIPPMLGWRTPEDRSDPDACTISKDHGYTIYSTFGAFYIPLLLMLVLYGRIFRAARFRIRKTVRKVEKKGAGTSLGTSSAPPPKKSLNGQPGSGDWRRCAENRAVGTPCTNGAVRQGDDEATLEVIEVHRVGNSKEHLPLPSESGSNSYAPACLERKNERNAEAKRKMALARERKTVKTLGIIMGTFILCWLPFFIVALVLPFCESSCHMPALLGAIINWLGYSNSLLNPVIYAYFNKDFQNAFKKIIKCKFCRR

| SMILES | Defensive Behavior Scale ([1]; dose 0.16 mg/kg SC) | Mean Defensive Score ([1]; dose 0.16 mg/kg SC) | % Protection (vomiting) ([1]; dose 0.16 mg/kg SC) | Mean Latency (mean latency to retch/vomit) ([1]; dose 0.16 mg/kg SC) | Cellular Function Antagonist (IC50, nM) [2] | level of anxiety 15 minutes after treatment ([1]; 0.08 mg/kg SC) | cats vomited ([1]; 0.08 mg/kg SC) | Defensive Behavior Scale ([1]; dose 0.08 mg/kg SC) | Mean Defensive Score ([1]; dose 0.08 mg/kg SC) | % Protection (vomiting) ([1]; dose 0.08 mg/kg SC) | Mean Latency (mean latency to retch/vomit) ([1]; dose 0.08 mg/kg SC) | anxiety-inducing effect in test subjects [1] | effectiveness in preventing (chemically-induced) emesis [1] | type of agonism at the 5-HT1A receptor (previous findings) [4] | also measured |
| --- | --- | --- | --- | --- | --- | --- | --- | --- | --- | --- | --- | --- | --- | --- | --- |
| CCCN(CCC)C1CCc2cccc(O)c2C1 (racemic) [R/S-(+/−)-DPAT, (±)-8-Hydroxy-2-(dipropylamino)tetralin] | Moderate | 2.0 | 100.00% | 0.0 min | Inactive |  |  |  |  |  |  |  |  |  | level of anxiety 15 minutes after treatment ([1]; 0.16 mg/kg SC): moderate level of anxiety; protection against xylazine-induced emesis ([1]; 0.16 mg/kg SC): 100% |
| CCCN(CCC)[C@@H]1CCc2cccc(O)c2C1 [R-(+)-DPAT, R(+)-8-hydroxy-2-(dipropylamino)tetralin] |  |  |  |  | Inactive | extreme level of anxiety | none of the cats vomited | Strong | 3.0 | 100.00% | 0.00 min | moderate to strong | 100% | full agonist | Defensive Behavior Scale ([1]; dose 0.02 mg/kg SC): Moderate; Mean Defensive Score ([1]; dose 0.02 mg/kg SC): 2.0; % Protection (vomiting) ([1]; dose 0.02 mg/kg SC): 100.00%; Mean Latency (mean latency to retch/vomit) ([1]; dose 0.02 mg/kg SC): 0.00 min; Defensive Behavior Scale ([1]; dose 0.04 mg/kg SC): Strong; Mean Defensive Score ([1]; dose 0.04 mg/kg SC): 3.0; % Protection (vomiting) ([1]; dose 0.04 mg/kg SC): 100.00%; Mean Latency (mean latency to retch/vomit) ([1]; dose 0.04 mg/kg SC): 0.00 min; Cellular Function Agonist: type of agonism ([3]; listed as R(+)-8-OH-DPAT): Full Agonist |
| CCCN(CCC)[C@H]1CCc2cccc(O)c2C1 [S-(−)-DPAT, S(−)-8-hydroxy-2-(dipropylamino)tetralin] | None | 0.0 | 85.71% | 0.82 min | Inactive | did not show any anxiety | 40% | None | 0.0 | 75.00% | 1.58 min | no anxiety or only slight anxiety | not fully effective | partial agonist | protection against xylazine-induced emesis ([1]; 0.08 mg/kg SC): 60%; Defensive Behavior Scale ([1]; dose 0.32 mg/kg SC): Slight; Mean Defensive Score ([1]; dose 0.32 mg/kg SC): 1.0; % Protection (vomiting) ([1]; dose 0.32 mg/kg SC): 80.00%; Mean Latency (mean latency to retch/vomit) ([1]; dose 0.32 mg/kg SC): 1.00 min; Cellular Function Agonist: type of agonism ([3]; listed as S(−)-8-OH-DPAT): Full Agonist |
